Key:
Format in all cases: cell-based
M2 muscarinic receptor = target: T1, M2 muscarinic receptor (Homo sapiens, UniProt P08172); assay: Functional mobilization of intracellular calcium (FLIPR), M2-CHO cells; conditions: for Emax / M2 Efficacy: 100% efficacy = maximum response obtained with the Carbachol control; for M2 Activity: M2-CHO cells, calcium mobilization (FLIPR)
T1 construct: expressed in transfected cells; host or cells: CHO (M2-CHO)
T1 sequence (P08172 1-466): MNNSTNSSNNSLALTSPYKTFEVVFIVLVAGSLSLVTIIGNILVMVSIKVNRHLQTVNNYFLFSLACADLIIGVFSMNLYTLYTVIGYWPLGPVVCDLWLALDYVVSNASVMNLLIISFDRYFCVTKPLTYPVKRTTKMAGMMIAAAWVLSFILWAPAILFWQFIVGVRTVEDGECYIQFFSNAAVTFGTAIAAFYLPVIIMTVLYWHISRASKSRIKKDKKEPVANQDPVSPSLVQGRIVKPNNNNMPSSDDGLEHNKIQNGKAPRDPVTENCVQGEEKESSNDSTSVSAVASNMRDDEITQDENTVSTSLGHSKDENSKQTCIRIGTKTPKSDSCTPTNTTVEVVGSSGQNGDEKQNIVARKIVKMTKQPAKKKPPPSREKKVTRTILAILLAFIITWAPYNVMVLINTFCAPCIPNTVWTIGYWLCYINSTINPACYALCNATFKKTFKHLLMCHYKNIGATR
Summary of the method: (§1)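 CHO cells expressing human M1–M4 receptors loaded with Fluo-3 AM or Calcium 3 dye (1 mM probenecid, pH 7.4); 0.5% DMSO final. Agonist mode: compound added directly; antagonist mode: 15 min pre-incubation or co-application, then carbachol at EC80. Fluorescence read 60 s on FLIPR; efficacy relative to carbachol maximum.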

M1 muscarinic receptor = target: T2, M1 muscarinic receptor (Homo sapiens, UniProt P11229); assay: Functional mobilization of intracellular calcium (FLIPR), M1-CHO cells; conditions: for Emax / M1 Efficacy: 100% efficacy = maximum response obtained with the Carbachol control; for M1 Activity: M1-CHO cells, calcium mobilization (FLIPR)
T2 construct: expressed in transfected cells; host or cells: CHO (M1-CHO)
T2 sequence (P11229 1-460): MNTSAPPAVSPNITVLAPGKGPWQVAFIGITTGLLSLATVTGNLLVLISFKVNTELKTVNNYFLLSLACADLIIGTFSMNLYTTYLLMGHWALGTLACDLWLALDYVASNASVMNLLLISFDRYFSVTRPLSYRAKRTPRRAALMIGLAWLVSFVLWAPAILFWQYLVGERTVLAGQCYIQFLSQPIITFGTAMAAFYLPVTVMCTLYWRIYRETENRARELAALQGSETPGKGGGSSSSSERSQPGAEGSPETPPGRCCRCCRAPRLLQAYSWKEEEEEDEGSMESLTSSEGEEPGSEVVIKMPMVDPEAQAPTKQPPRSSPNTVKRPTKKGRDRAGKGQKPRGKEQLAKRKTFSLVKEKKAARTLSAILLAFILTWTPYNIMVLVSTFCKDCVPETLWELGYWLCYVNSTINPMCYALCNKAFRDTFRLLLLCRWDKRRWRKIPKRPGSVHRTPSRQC
Summary of the method: as §1

M4 muscarinic receptor = target: T3, M4 muscarinic receptor (Homo sapiens, UniProt P08173); assay: Functional mobilization of intracellular calcium (FLIPR), M4-CHO cells; conditions: for Emax / M4 Efficacy: 100% efficacy = maximum response obtained with the Carbachol control; for M4 Activity: M4-CHO cells, calcium mobilization (FLIPR)
T3 construct: expressed in transfected cells; host or cells: CHO (M4-CHO)
T3 sequence (P08173 1-479): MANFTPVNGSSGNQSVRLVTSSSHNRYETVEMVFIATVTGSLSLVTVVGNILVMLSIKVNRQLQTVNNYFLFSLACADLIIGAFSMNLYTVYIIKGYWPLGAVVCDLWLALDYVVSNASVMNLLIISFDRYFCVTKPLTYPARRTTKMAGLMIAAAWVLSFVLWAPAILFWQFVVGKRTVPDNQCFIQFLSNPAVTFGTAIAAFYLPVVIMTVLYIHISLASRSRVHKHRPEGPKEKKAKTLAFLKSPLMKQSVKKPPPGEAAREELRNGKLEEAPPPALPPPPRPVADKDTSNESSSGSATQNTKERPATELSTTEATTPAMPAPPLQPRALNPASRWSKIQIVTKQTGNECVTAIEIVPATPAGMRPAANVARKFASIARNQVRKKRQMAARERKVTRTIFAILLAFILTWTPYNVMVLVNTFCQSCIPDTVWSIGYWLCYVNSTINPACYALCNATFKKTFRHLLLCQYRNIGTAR
Summary of the method: as §1

M3 muscarinic receptor = target: T4, M3 muscarinic receptor (Homo sapiens, UniProt P20309); assay: Functional mobilization of intracellular calcium (FLIPR), M3-CHO cells; conditions: for Emax / M3 Efficacy: 100% efficacy = maximum response obtained with the Carbachol control; for M3 Activity: M3-CHO cells, calcium mobilization (FLIPR)
T4 construct: expressed in transfected cells; host or cells: CHO (M3-CHO)
Summary of the method: as §1

T4 sequence (P20309 whole entry): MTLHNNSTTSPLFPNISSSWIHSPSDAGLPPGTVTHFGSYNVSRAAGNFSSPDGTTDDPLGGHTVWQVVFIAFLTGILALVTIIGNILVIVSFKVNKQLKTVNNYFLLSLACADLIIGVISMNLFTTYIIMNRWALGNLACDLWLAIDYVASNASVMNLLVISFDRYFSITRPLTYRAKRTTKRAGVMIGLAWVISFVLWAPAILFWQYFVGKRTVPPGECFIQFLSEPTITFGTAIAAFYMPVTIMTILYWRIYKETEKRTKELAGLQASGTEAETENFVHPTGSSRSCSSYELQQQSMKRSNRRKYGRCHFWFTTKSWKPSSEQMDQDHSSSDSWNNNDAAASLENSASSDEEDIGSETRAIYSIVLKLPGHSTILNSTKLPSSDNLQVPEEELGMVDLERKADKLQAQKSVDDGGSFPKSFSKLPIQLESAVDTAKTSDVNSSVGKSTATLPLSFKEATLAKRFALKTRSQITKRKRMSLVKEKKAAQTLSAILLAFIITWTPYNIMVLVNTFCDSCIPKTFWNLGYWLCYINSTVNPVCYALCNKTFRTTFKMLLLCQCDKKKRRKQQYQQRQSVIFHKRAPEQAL

Row | SMILES | Emax (M2 muscarinic receptor) [%] | M2 Activity (M2 muscarinic receptor) | Emax (M1 muscarinic receptor) [%] | M1 Activity (M1 muscarinic receptor) | Emax (M4 muscarinic receptor) [%] | M4 Activity (M4 muscarinic receptor) | Emax (M3 muscarinic receptor) [%] | M3 Activity (M3 muscarinic receptor) | M2 Efficacy (M2 muscarinic receptor) | M1 Efficacy (M1 muscarinic receptor) | M4 Efficacy (M4 muscarinic receptor) | M3 Efficacy (M3 muscarinic receptor)
1 | COc1ccc(-c2ccc(S(C)(=O)=O)cc2)cc1C1CCN(C2CCOCC2)CC1 [Compound 357] | < 25 | + (activity was measured to be greater than 5.0 μM) | < 25 | + (activity was measured to be greater than 5.0 μM) | < 25 | + (activity was measured to be greater than 5.0 μM) | < 25 | + (activity was measured to be greater than 5.0 μM) |  |  |  | 
2 | Cc1ccc(C(F)(F)F)cc1C1CCN(C2CCOCC2)CC1 [Compound 358] | 25 to 100 | + (activity was measured to be greater than 5.0 μM) | 25 to 100 | ++ (activity was measured to be from 1.0 μM to 5.0 μM) | 25 to 100 | ++ (activity was measured to be from 1.0 μM to 5.0 μM) | < 25 | + (activity was measured to be greater than 5.0 μM) |  |  |  | 
3 | COc1ccc(-c2ccc(C(=O)N(C)C)cc2)cc1C1CCN([C@H]2C[C@H]3CC[C@H]2C3)CC1 [Compound 360] | < 25 | + (activity was measured to be greater than 5.0 μM) | < 25 | + (activity was measured to be greater than 5.0 μM) | 25 to 100 | ++ (activity was measured to be from 1.0 μM to 5.0 μM) | < 25 | + (activity was measured to be greater than 5.0 μM) |  |  |  | 
4 | COc1ccc(-c2ccc(C(C)(C)C#N)cc2)cc1C1CCN(C2CC3CCC(C3)C2)CC1 (stereo not shown) [Compound 361] | < 25 | + (activity was measured to be greater than 5.0 μM) | 25 to 100 | + (activity was measured to be greater than 5.0 μM) | 25 to 100 | + (activity was measured to be greater than 5.0 μM) | < 25 | + (activity was measured to be greater than 5.0 μM) |  |  |  | 
5 | CCCON=C1CCC(N2CCC(c3cc(Cl)ccc3OC)CC2)CC1 (stereo not shown) [Compound 362] |  | ++ (activity was measured to be from 1.0 μM to 5.0 μM) |  | +++ (activity was measured to be less than 1.0 μM) |  | +++ (activity was measured to be less than 1.0 μM) |  | + (activity was measured to be greater than 5.0 μM) | ++ (efficacy was calculated to be from 100% to 25%) | ++ (efficacy was calculated to be from 100% to 25%) | ++ (efficacy was calculated to be from 100% to 25%) | + (efficacy was calculated to be less than 25%)
6 | CCOC(=O)N1[C@@H]2CC[C@@H]1CC(N1CCC(c3cc(C)ccc3OC)CC1)C2 (stereo partly shown) [Compound 363] | 25 to 100 | +++ (activity was measured to be less than 1.0 μM) | 25 to 100 | +++ (activity was measured to be less than 1.0 μM) | 25 to 100 | +++ (activity was measured to be less than 1.0 μM) | 25 to 100 | + (activity was measured to be greater than 5.0 μM) |  |  |  | 
7 | CCOC(=O)N1CCC(CN2CCC(c3ccc(F)cc3OC)CC2)CC1 [Compound 364] | < 25 | + (activity was measured to be greater than 5.0 μM) | 25 to 100 | +++ (activity was measured to be less than 1.0 μM) | 25 to 100 | +++ (activity was measured to be less than 1.0 μM) | < 25 | + (activity was measured to be greater than 5.0 μM) |  |  |  | 
8 | CCCC1CCC(N2CCC(F)(c3cc(Cl)ccc3OC)CC2)CC1 (stereo not shown) [Compound 365] | 25 to 100 | + (activity was measured to be greater than 5.0 μM) | 25 to 100 | + (activity was measured to be greater than 5.0 μM) | 25 to 100 | + (activity was measured to be greater than 5.0 μM) | < 25 | + (activity was measured to be greater than 5.0 μM) |  |  |  | 
9 | COc1ccc(-c2cccc(F)c2)cc1C1CCN([C@H]2C[C@H]3CC[C@H]2C3)CC1 [Compound 366] | < 25 | + (activity was measured to be greater than 5.0 μM) | < 25 | + (activity was measured to be greater than 5.0 μM) | 25 to 100 | + (activity was measured to be greater than 5.0 μM) | < 25 | + (activity was measured to be greater than 5.0 μM) |  |  |  | 
10 | COc1ccc(Cl)cc1C1(F)CCN([C@H]2C[C@H]3CC[C@H]2C3)CC1 [Compound 367] | < 25 | + (activity was measured to be greater than 5.0 μM) | < 25 | + (activity was measured to be greater than 5.0 μM) | < 25 | + (activity was measured to be greater than 5.0 μM) | < 25 | + (activity was measured to be greater than 5.0 μM) |  |  |  | 
11 | CCOC(=O)N1CCC(N2CCC(F)(c3cc(Cl)ccc3OC)CC2)CC1 [Compound 368] |  | ++ (activity was measured to be from 1.0 μM to 5.0 μM) |  | ++ (activity was measured to be from 1.0 μM to 5.0 μM) |  | +++ (activity was measured to be less than 1.0 μM) |  | + (activity was measured to be greater than 5.0 μM) | ++ (efficacy was calculated to be from 100% to 25%) | ++ (efficacy was calculated to be from 100% to 25%) | ++ (efficacy was calculated to be from 100% to 25%) | + (efficacy was calculated to be less than 25%)
12 | COc1ccccc1C1CCN(CC2CCOC2)CC1 (stereo not shown) [Compound 369] | < 25 | + (activity was measured to be greater than 5.0 μM) | 25 to 100 | + (activity was measured to be greater than 5.0 μM) | 25 to 100 | ++ (activity was measured to be from 1.0 μM to 5.0 μM) | < 25 | + (activity was measured to be greater than 5.0 μM) |  |  |  | 
13 | COc1ccccc1C1CCN(C2CCC(C3CCC(=O)CC3)CC2)CC1 (stereo not shown) [Compound 370] | < 25 | + (activity was measured to be greater than 5.0 μM) | < 25 | + (activity was measured to be greater than 5.0 μM) | 25 to 100 | ++ (activity was measured to be from 1.0 μM to 5.0 μM) | < 25 | + (activity was measured to be greater than 5.0 μM) |  |  |  | 
14 | COc1ccc(F)cc1C1CCN(C2CC3CCC2C3)CC1 (stereo not shown) [Compound 371] | 25 to 100 | ++ (activity was measured to be from 1.0 μM to 5.0 μM) | 25 to 100 | ++ (activity was measured to be from 1.0 μM to 5.0 μM) | 25 to 100 | +++ (activity was measured to be less than 1.0 μM) | < 25 | + (activity was measured to be greater than 5.0 μM) |  |  |  | 
